Measured values: PubChem BioAssay (NCI)
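Following 48 hours of exposure in 96-well plates, responses at five concentrations were used to interpolate endpoints linearly. GI50 marks 50% less growth. TGI is the concentration that stops growth completely.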

Legend:
Assay in all cases: growth of human tumour cells (NCI), 48 h
HCC-2998 colon = system: HCC-2998 colon
T-47D breast = system: T-47D breast
OVCAR-5 ovarian = system: OVCAR-5 ovarian
786-0 renal = system: 786-0 renal
MDA-MB-435 = system: MDA-MB-435
KM12 colon = system: KM12 colon
NCI/ADR-RES ovarian = system: NCI/ADR-RES ovarian
ACHN renal = system: ACHN renal
M14 melanoma = system: M14 melanoma
SK-MEL-5 melanoma = system: SK-MEL-5 melanoma
SF-295 CNS = system: SF-295 CNS
OVCAR-8 ovarian = system: OVCAR-8 ovarian
A549 NSCLC = system: A549 NSCLC
SR leukemia = system: SR leukemia
HS 578T breast = system: HS 578T breast
SF-268 CNS = system: SF-268 CNS
SNB-19 CNS = system: SNB-19 CNS
DU-145 prostate = system: DU-145 prostate
NCI-H460 lung = system: NCI-H460 lung
NCI-H23 lung = system: NCI-H23 lung
HOP-92 NSCLC = system: HOP-92 NSCLC
A498 renal = system: A498 renal
MCF7 breast = system: MCF7 breast
U251 CNS = system: U251 CNS
IGROV1 ovarian = system: IGROV1 ovarian
MALME-3M melanoma = system: MALME-3M melanoma
NCI-H226 lung = system: NCI-H226 lung
CAKI-1 renal = system: CAKI-1 renal
MOLT-4 leukemia = system: MOLT-4 leukemia
HT29 colon = system: HT29 colon
SK-OV-3 ovarian = system: SK-OV-3 ovarian
SN12C renal = system: SN12C renal
MDA-N = system: MDA-N
SK-MEL-2 melanoma = system: SK-MEL-2 melanoma
NCI-H522 lung = system: NCI-H522 lung
RPMI-8226 leukemia = system: RPMI-8226 leukemia
HCT-116 colon = system: HCT-116 colon
UACC-257 melanoma = system: UACC-257 melanoma
UO-31 renal = system: UO-31 renal
LOX IMVI melanoma = system: LOX IMVI melanoma
OVCAR-3 ovarian = system: OVCAR-3 ovarian
SNB-75 CNS = system: SNB-75 CNS
SW-620 colon = system: SW-620 colon
PC-3 prostate = system: PC-3 prostate
TK-10 renal = system: TK-10 renal
UACC-62 melanoma = system: UACC-62 melanoma
HOP-62 NSCLC = system: HOP-62 NSCLC
MDA-MB-231 breast = system: MDA-MB-231 breast
SK-MEL-28 melanoma = system: SK-MEL-28 melanoma
EKVX NSCLC = system: EKVX NSCLC
OVCAR-4 ovarian = system: OVCAR-4 ovarian
K-562 leukemia = system: K-562 leukemia
CCRF-CEM leukemia = system: CCRF-CEM leukemia
COLO 205 colon = system: COLO 205 colon
HCT-15 colon = system: HCT-15 colon

CCOC(=O)c1ccc(C(O)CC(=O)OC(C)(C)C)[nH]1 (stereo not given)
GI50 (HCC-2998 colon): 33 µM | TGI (HCC-2998 colon): > 100 µM | GI50 (T-47D breast): 38.4 µM | TGI (T-47D breast): > 100 µM | GI50 (OVCAR-5 ovarian): 32.3 µM | TGI (OVCAR-5 ovarian): > 100 µM | GI50 (786-0 renal): 23.9 µM | TGI (786-0 renal): 83.3 µM | GI50 (MDA-MB-435): 24.1 µM | TGI (MDA-MB-435): 62.2 µM | GI50 (KM12 colon): 24 µM | TGI (KM12 colon): 61.4 µM | GI50 (NCI/ADR-RES ovarian): 41 µM | TGI (NCI/ADR-RES ovarian): > 100 µM | GI50 (ACHN renal): 41.5 µM | TGI (ACHN renal): > 100 µM | GI50 (M14 melanoma): 27 µM | TGI (M14 melanoma): 67.3 µM | GI50 (SK-MEL-5 melanoma): 27.3 µM | TGI (SK-MEL-5 melanoma): 89 µM | GI50 (SF-295 CNS): 29.7 µM | TGI (SF-295 CNS): 63.5 µM | GI50 (OVCAR-8 ovarian): 56.7 µM | TGI (OVCAR-8 ovarian): > 100 µM | GI50 (A549 NSCLC): 32.1 µM | TGI (A549 NSCLC): > 100 µM | GI50 (SR leukemia): 22.4 µM | TGI (SR leukemia): > 100 µM | GI50 (HS 578T breast): 48.3 µM | TGI (HS 578T breast): > 100 µM | GI50 (SF-268 CNS): 28.7 µM | TGI (SF-268 CNS): > 100 µM | GI50 (SNB-19 CNS): 42.9 µM | TGI (SNB-19 CNS): > 100 µM | GI50 (DU-145 prostate): 59.7 µM | TGI (DU-145 prostate): > 100 µM | GI50 (NCI-H460 lung): 35.9 µM | TGI (NCI-H460 lung): > 100 µM | GI50 (NCI-H23 lung): 44.4 µM | TGI (NCI-H23 lung): > 100 µM | GI50 (HOP-92 NSCLC): 17.9 µM | TGI (HOP-92 NSCLC): 55.8 µM | GI50 (A498 renal): 23.7 µM | TGI (A498 renal): > 100 µM | GI50 (MCF7 breast): 10.4 µM | TGI (MCF7 breast): 30 µM | GI50 (U251 CNS): 39.5 µM | TGI (U251 CNS): > 100 µM | GI50 (IGROV1 ovarian): 12.4 µM | TGI (IGROV1 ovarian): 30.4 µM | GI50 (MALME-3M melanoma): 0.692 µM | TGI (MALME-3M melanoma): 24.8 µM | GI50 (NCI-H226 lung): 94.1 µM | TGI (NCI-H226 lung): > 100 µM | GI50 (CAKI-1 renal): 21.6 µM | TGI (CAKI-1 renal): 87.2 µM | GI50 (MOLT-4 leukemia): 17.2 µM | TGI (MOLT-4 leukemia): > 100 µM | GI50 (HT29 colon): 59 µM | TGI (HT29 colon): > 100 µM | GI50 (SK-OV-3 ovarian): 32.1 µM | TGI (SK-OV-3 ovarian): > 100 µM | GI50 (SN12C renal): 17.4 µM | TGI (SN12C renal): 62.4 µM | GI50 (MDA-N): 17.8 µM | TGI (MDA-N): 60.3 µM | GI50 (SK-MEL-2 melanoma): 21.3 µM | TGI (SK-MEL-2 melanoma): 41.3 µM | GI50 (NCI-H522 lung): 9.5 µM | TGI (NCI-H522 lung): 25.9 µM | GI50 (RPMI-8226 leukemia): > 100 µM | TGI (RPMI-8226 leukemia): > 100 µM | GI50 (HCT-116 colon): 23.2 µM | TGI (HCT-116 colon): 68.4 µM | GI50 (UACC-257 melanoma): 40.8 µM | TGI (UACC-257 melanoma): > 100 µM | GI50 (UO-31 renal): 38.5 µM | TGI (UO-31 renal): > 100 µM | GI50 (LOX IMVI melanoma): 25.1 µM | TGI (LOX IMVI melanoma): 86.8 µM | GI50 (OVCAR-3 ovarian): 28.5 µM | TGI (OVCAR-3 ovarian): 68.2 µM | GI50 (SNB-75 CNS): 37.2 µM | TGI (SNB-75 CNS): > 100 µM | GI50 (SW-620 colon): 50.1 µM | TGI (SW-620 colon): > 100 µM | GI50 (PC-3 prostate): 21.3 µM | TGI (PC-3 prostate): 62 µM | GI50 (TK-10 renal): 58.4 µM | TGI (TK-10 renal): > 100 µM | GI50 (UACC-62 melanoma): 26.5 µM | TGI (UACC-62 melanoma): 81.3 µM | GI50 (HOP-62 NSCLC): 45.1 µM | TGI (HOP-62 NSCLC): > 100 µM | GI50 (MDA-MB-231 breast): 13 µM | TGI (MDA-MB-231 breast): > 100 µM | GI50 (SK-MEL-28 melanoma): 35.7 µM | TGI (SK-MEL-28 melanoma): > 100 µM | GI50 (EKVX NSCLC): 22.7 µM | TGI (EKVX NSCLC): 49.6 µM | GI50 (OVCAR-4 ovarian): 38.1 µM | TGI (OVCAR-4 ovarian): > 100 µM | GI50 (K-562 leukemia): 52.6 µM | TGI (K-562 leukemia): > 100 µM | GI50 (CCRF-CEM leukemia): 29.6 µM | TGI (CCRF-CEM leukemia): 88 µM | GI50 (COLO 205 colon): 41.3 µM | TGI (COLO 205 colon): > 100 µM | GI50 (HCT-15 colon): 34.4 µM | TGI (HCT-15 colon): > 100 µM
